From patent publication US8686048B2, “Immunomodulator and anti-inflammatory compounds” (Rhizen Pharmaceuticals SA, priority 2010, dated 2014) come the findings set out here.

Data set [1] deals with IL-17. In words: Inhibition of IL-17 release from mouse splenocytes (PMA + ionomycin, ELISA). In kind it is cell-based, Balb/c mice. Particulars: Splenocyte, 10 μM, 3 h. As to the method:
2. Inhibition of IL-17 Release from Mouse Splenocytes:
Splenocytes isolated from Balb/c mice were re-suspended in RPMI medium at a concentration of 1×10^6 cells/ml and seeded in a 6 well plate. Cells were incubated with desired concentrations of the inhibitor for 15 min prior to induction with 10 ng/ml PMA+1 μM ionomycin. After a 3 h incubation, supernatant was collected and analyzed for IL-17 concentration using an ELISA kit. Data were analyzed using GraphPad Prism. IC50 values for each compound were determined based on the percent inhibition due to the test compound compared to the control.

Data set [2] has as its target T1, h-DHODH (Homo sapiens, UniProt Q02127).
T1 construct: endogenous in cells; host or cells: U937 cells (membrane fraction, solubilised with 1% octyl glucoside)
In words: Dihydro-orotate dehydrogenase inhibition assay (U937 membrane preparations, DCIP reduction). The data set is classed as biochemical. The following applies: U937 membrane preparation. On the procedure: Dihydro-Orotate Dehydrogenase Inhibition Assay
Dihydro-orotate dehydrogenase (DHODH) catalyzes the […] of dihydro-orotate to orotate during de novo biosynthesis of pyrimidines Inhibition of DHODH activity in U937 membrane preparations was measured by the dihydro-orotate driven reduction of 2,6 dichloroindophenol (DCIP).
U937 cells were homogenized in 20 mM Tris/HCl (pH 7.2) containing 1 mM EDTA. […] Following washes, the pellet was dissolved in 20 mM Tris/HCl containing 150 mM NaCl, 1 mM EDTA, and 1% octyl glucoside on ice for 1 h. Particulate matter was removed by centrifugation at 100000×g for 1 h at 4° C. […] The mixture was incubated at 37° C. for 4 h before measuring the change in absorbance on a plate reader (BMG Labtech., Germany) at 600 nm. Data were analyzed using GraphPad Prism. IC50 for each compound was determined based on the percent inhibition of dihydro-orotate […].

Structures are written as SMILES.

T1 sequence (Q02127 whole entry): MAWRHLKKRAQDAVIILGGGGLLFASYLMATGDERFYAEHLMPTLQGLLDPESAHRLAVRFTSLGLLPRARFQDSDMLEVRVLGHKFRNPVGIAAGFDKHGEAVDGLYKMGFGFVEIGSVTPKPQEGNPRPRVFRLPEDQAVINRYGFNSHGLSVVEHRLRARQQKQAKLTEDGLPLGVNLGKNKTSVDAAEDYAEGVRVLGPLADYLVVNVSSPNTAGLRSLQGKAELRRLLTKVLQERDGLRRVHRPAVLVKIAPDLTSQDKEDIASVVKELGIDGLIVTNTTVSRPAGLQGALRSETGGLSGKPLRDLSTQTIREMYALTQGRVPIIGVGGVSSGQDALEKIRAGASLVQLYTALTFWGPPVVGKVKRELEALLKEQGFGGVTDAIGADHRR

In turn, `O=C(O)c1ccccc1C(=O)Nc1ccc(-c2cccc(OC(F)(F)F)c2)cc1F` [Example 22, 2-[3-Fluoro-3′-(trifluoromethoxy)biphenyl-4-ylcarbamoyl]benzoic acid] came in with a melting point of 128.3 to 132.1 °C. Further, the inhibition at 10 µM in data set [1] is 12.9%. Further, at 1 µM the inhibition in data set [2] was 41.8%.
Consider `O=C(O)c1ccccc1C(=O)Nc1ccc(-c2cccc(OC3CC3)c2)cc1` [Example 95, 2-(3′-cyclopropoxybiphenyl-4-ylcarbamoyl)benzoic acid], for which the melting point lay in the range of 150.2 to 154.3 °C. Also, in data set [2], testing at 1 µM gave an inhibition of 1.49%.
Regarding `COc1cccc(-c2cc(F)c(NC(=O)c3ccccc3S(=O)(=O)O)c(F)c2)c1` [Example 2, 2-(3,5-Difluoro-3′-methoxybiphenyl-4-ylcarbamoyl)benzenesulfonic acid], the melting point is 97 to 102 °C. Also, the inhibition at 10 µM in data set [1] came to 29.2%. In data set [2], this compound had an inhibition at 1 µM of 12.2%.
The compound `CCCCOc1cccc(-c2c(F)c(F)c(NC(=O)c3ccccc3C(=O)O)c(F)c2F)c1` [Example 91, 2-(3′-butoxy-2,3,5,6-tetrafluorobiphenyl-4-ylcarbamoyl)benzoic acid] returned a melting point of 215.5 to 218.5 °C. In addition, in data set [2], the inhibition at 1 µM came out at 42.4%.
`O=C(O)c1ccccc1C(=O)Nc1ccc(-c2ccccc2F)cc1OC(F)(F)F` [Example 23, 2-[2′-Fluoro-3-(trifluoromethoxy)biphenyl-4-ylcarbamoyl]benzoic acid] yielded a melting point of 142.2 to 148.1 °C. Further, the inhibition at 10 µM in data set [1] turned out to be 15%. In data set [2], this compound yielded an inhibition at 1 µM of 47.2%.
For the compound `CCCCOc1cccc(-c2c(F)cc(NC(=O)c3ccccc3C(=O)O)cc2F)c1` [Example 98, 2-(3′-Butoxy-2,6-difluorobiphenyl-4-ylcarbamoyl)benzoic acid], the melting point fell in the range of 181.1 to 184.2 °C. This compound returned an inhibition at 1 µM in data set [2] of 31%.
`CCOc1cccc(-c2cc(Cl)c(NC(=O)c3ccccc3C(=O)O)c(Cl)c2)c1` [Example 21, 2-(3,5-Dichloro-3′-ethoxybiphenyl-4-ylcarbamoyl)benzoic acid] had a melting point of 135.9 to 138.2 °C. Moreover, in data set [1], the inhibition at 10 µM worked out at 17.8%. At 1 µM the inhibition in data set [2] was 56.4%.
Consider `CCCCOc1cccc(-c2ccc(NC(=O)c3ccccc3C(=O)O)cc2)c1` [Example 96, 2-(3′-butoxybiphenyl-4-ylcarbamoyl)benzoic acid], for which the melting point was 155 to 157 °C.
For `O=C(O)c1ccccc1C(=O)Nc1c(F)cc(-c2cccc(OC(F)(F)F)c2)cc1F` [Example 12, 2-[3,5-Difluoro-3′-(trifluoromethoxy)biphenyl-4-ylcarbamoyl]benzoic acid], the melting point lay within 148.2 to 151.4 °C. For the same compound, in data set [1], the inhibition at 10 µM came to 2.96%. Also, in data set [2], the “h-DHODH % inhibition 1 uM” value amounted to 64.47% and it took 0.205 µM to reach half-maximal inhibition (IC50).
For the compound `CCCCOc1cccc(-c2ccc(NC(=O)c3ccccc3C(=O)O)c(F)c2)c1` [Example 92, 2-(3′-butoxy-3-fluorobiphenyl-4-ylcarbamoyl)benzoic acid], the melting point lay within 102 to 105 °C. For the same compound, the inhibition at 1 µM in data set [2] was 9.65%.
In turn, `CCSc1cccc(-c2c(F)cc(NC(=O)c3ccccc3C(=O)O)cc2F)c1` [Example 89, 2-[3′-(ethylthio)-2,6-difluorobiphenyl-4-ylcarbamoyl]benzoic acid] showed a melting point of 162 to 167 °C. Also, the inhibition at 10 µM in data set [1] came out at 25.5%.
As for `O=C(O)c1ccccc1C(=O)Nc1c(Cl)cc(-c2ccccc2Cl)cc1Cl` [Example 33, 2-(2′,3,5-Trichlorobiphenyl-4-ylcarbamoyl)benzoic acid], the melting point lay in the range of 182 to 185 °C. Besides, in data set [1], the inhibition at 10 µM turned out to be 14%.
As to `O=C(O)c1ccccc1C(=O)Nc1c(F)cc(-c2cccc(OC(F)(F)F)c2)cc1F` [Example 93, 2-[3,5-difluoro-3′-(trifluoromethoxy)biphenyl-4-ylcarbamoyl]benzoic acid], the melting point fell in the range of 158 to 160 °C. Also, in data set [2], the “h-DHODH % inhibition 1 uM” value worked out at 10.46%.
As to `CCCCOc1cccc(-c2ccc(NC(=O)c3ccccc3C(=O)O)cc2F)c1` [Example 97, 2-(3′-butoxy-2-fluorobiphenyl-4-ylcarbamoyl)benzoic acid], the melting point lay within 164 to 167 °C.
In the case of `CCCc1c[nH]c2ccc(-c3cc(F)c(NC(=O)c4ccccc4C(=O)O)c(F)c3)cc12` [Example 99, 2-[2,6-Difluoro-4-(3-propyl-1H-indol-5-yl)phenylcarbamoyl]benzoic acid], the melting point lay in the range of 76 to 80 °C. In data set [2], this compound gave an inhibition at 1 µM of 42.6%.
The compound `COc1ccc(Cl)c(-c2ccc(NC(=O)c3ccccc3C(=O)O)cc2F)c1` [Example 79, 2-(2′-chloro-2-fluoro-5′-methoxybiphenyl-4-ylcarbamoyl)benzoic acid] came in with a melting point of 185 to 187 °C. The inhibition at 10 µM in data set [1] was found to be 24.6%.
For `CCOc1cccc(-c2cc(F)c(NC(=O)c3nccnc3C(=O)O)c(Cl)c2)c1` [Example 11, 3-(3-Chloro-3′-ethoxy-5-fluorobiphenyl-4-ylcarbamoyl)pyrazine-2-carboxylic acid] the same measures were 148 to 153 °C and 2.62%.
The compound `CCc1c[nH]c2ccc(-c3cc(F)c(NC(=O)c4ccccc4C(=O)O)c(Cl)c3)cc12` [Example 100, 2-[2-Chloro-4-(3-ethyl-1H-indol-5-yl)-6-fluorophenylcarbamoyl]benzoic acid] had a melting point of 98 to 102 °C. This compound had an inhibition at 1 µM in data set [2] of 58.7%.
On to `CCOc1cccc(-c2cc(F)c(NC(=O)c3c(Cl)ccc(Cl)c3C(=O)O)c(F)c2)c1` [Example 28, 3,6-dichloro-2-(3′-ethoxy-3,5-difluorobiphenyl-4-ylcarbamoyl)benzoic acid], for which the inhibition at 10 µM in data set [1] stood at 18.8%. This compound displayed an inhibition at 1 µM in data set [2] of 12.9%.
On to `O=C(O)c1ccccc1C(=O)Nc1c(F)cc(-c2ccc3c(c2)OCO3)cc1F` [Example 47, 2-[4-(Benzo[d][1,3]dioxol-5-yl)-2,6-difluorophenylcarbamoyl]benzoic acid], for which the inhibition at 10 µM in data set [1] is 6.22%. Moreover, in data set [2], testing at 1 µM gave an inhibition of 55.2%.
Consider `COc1cccc(-c2ccc(NC(=O)c3ccccc3C(=O)O)c(F)c2)c1` [Example 69, 2-(3-fluoro-3′-methoxybiphenyl-4-ylcarbamoyl)benzoic acid], for which, in data set [1], the inhibition at 10 µM worked out at 5.54%. For the same compound, 1 µM produced 22% inhibition in data set [2].
For `COc1ccc(F)c(-c2cc(F)c(NC(=O)c3ccccc3C(=O)O)c(Cl)c2)c1` [Example 61, 2-(3-chloro-2′,5-difluoro-5′-methoxybiphenyl-4-ylcarbamoyl)benzoic acid], in that order: 4.23% and 73.7%.
As to `O=C(O)c1ccccc1C(=O)Nc1c(F)cc(-c2cccc(OCC(F)(F)F)c2)cc1F` [Example 83, 2-[3,5-difluoro-3′-(2,2,2-trifluoroethoxy)biphenyl-4-ylcarbamoyl]benzoic acid], the inhibition at 10 µM in data set [1] turned out to be 8.79%. The inhibition at 0.3 µM in data set [2] (compound tested at 0.3 uM (footnote *)) is 43.6%.
In turn, `O=C(O)c1ccccc1C(=O)Nc1ccc(-c2cccc(OC3CC3)c2)cc1F` [Example 94, 2-(3′-cyclopropoxy-3-fluorobiphenyl-4-ylcarbamoyl)benzoic acid] returned a melting point of 134.5 to 137.5 °C. This compound also gave an inhibition at 1 µM in data set [2] of 13.9%.
